# What was measured:
# Format in all cases: cell-based, human
# Settings in all cases: HaCaT cells, IFN-γ 10 ng/mL; 1, 10, and 100 ppm; 24 hours; GAPDH as standard
# CCL17 = assay: Marker gene expression in IFN-γ atopic dermatitis cell model (HaCaT), real-time PCR: CCL17
# Experimental: (§1) To verify the effect of the Cyclo(Gly-Pro) of alleviating atopic dermatitis, an in vitro efficacy evaluation was conducted.
# (§2) First, human keratinocytes, HaCaT cells, were purchased from the American Type Culture Collection (ATCC; Manassas, VA, USA) and cultured in DMEM (HyClone, Logan, UT, USA) supplemented with 10 % FBS (HyClone) and 1 % antibiotic-antimycotic solution (Welgene, Daegu, Korea). The cells were maintained at 37 °C in a 5 % CO2 incubator. After isolating the cells using trypsinization, 4 x 10^5 cells were added to each well of a 6-well plate. After 1 day of cell attachment, the culture was replaced with a serum-free medium and treated with IFN-γ (Sigma Aldrich, St. St. Louis, MO, USA) at a concentration of 10 ng/mL to induce an environment similar to atopic dermatitis. As a positive control group, 1 µM dexamethasone (Sigma Aldrich) was used. As experimental groups, the cells were treated with Cyclo(Gly-Pro) (Biosynth Ltd, Berkshire, UK) at concentrations of 1, 10, and 100 ppm. […]
# (§3) The cDNA amplification was performed by 40 cycles of amplification, wherein each cycle has the following conditions: 50 °C for 2 minutes, 95 °C for 10 minutes, 40 cycles of 95°C for 10 seconds, and 60°C for 1 minute. GAPDH was used as an ISTD material, and the mRNA expression levels were expressed as relative values compared to the negative control group. […]
# CCL22 = assay: Marker gene expression in IFN-γ atopic dermatitis cell model (HaCaT), real-time PCR: CCL22
# Experimental: as §1, §2, §3
# IL-13 = assay: Marker gene expression in IFN-γ atopic dermatitis cell model (HaCaT), real-time PCR: IL-13
# Experimental: as §1, §2, §3
# IL-22 = assay: Marker gene expression in IFN-γ atopic dermatitis cell model (HaCaT), real-time PCR: IL-22
# Experimental: as §1, §2, §3
# sIL-2R = assay: Marker gene expression in IFN-γ atopic dermatitis cell model (HaCaT), real-time PCR: sIL-2R
# Experimental: as §1, §2, §3
# IL-31 = assay: Marker gene expression in IFN-γ atopic dermatitis cell model (HaCaT), real-time PCR: IL-31
# Experimental: as §1, §2, §3
# filaggrin (FLG) = assay: Marker gene expression in IFN-γ atopic dermatitis cell model (HaCaT), real-time PCR: filaggrin
# Experimental: as §1, §2, §3
smiles,measurement,setting,value
"O=C1NCC(=O)N2CCCC12 (stereo not shown) [Cyclo(Gly-Pro), hexahydropyrrolo[1,2-a]pyrazine-1,4-dione]",relative expression levels of CCL17,CCL17,decreased
same,relative expression levels of CCL22,CCL22,decreased
same,relative expression levels of IL-13,IL-13,decreased
same,relative expression levels of IL-22,IL-22,decreased
same,relative expression levels of sIL-2R,sIL-2R,decreased
same,relative expression levels of IL-31,IL-31,decreased
same,relative expression levels of filaggrin (FLG),filaggrin (FLG),increased

# From patent publication EP4656179A1, “COMPOSITION CONTAINING STREPTOCOCCUS SP. STRAIN FOR PREVENTION, ALLEVIATION, OR TREATMENT OF SKIN DISEASES” (Cosmax, Inc., priority 2023, dated 2024)
